Results from PubChem BioAssay AID2060325 (Molecular Pharmacology Branch, DTP, NCI, 2025).
pIC50: −log10 of the molar value.

Test system: SK-OV-3 multi-cell spheroids, viability
Assay: Anticancer human tumor SK-OV-3 cell line growth inhibition [IpAb];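 for viability, T/C: viability read after seven days of drug exposure; percent of DMSO vehicle control luminescence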
Conditions: for pIC50: curve of first compound; for viability, T/C: stronger effect = lower value
How it was run: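 Multi-cell spheroids of 60% tumour cells, 25% HUVEC and 15% MSC in ultra-low-attachment U-bottom wells, treated with agents combined with ipatasertib or abemaciclib. Half-log ranges top out near clinical Cmax, or 10 microM when Cmax is unknown.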

[1] = second compound 0.1 µM, first compound 0.0316 µM
[2] = second compound 0.1 µM, first compound 0.1 µM
[3] = second compound 0.1 µM, first compound 0.316 µM
[4] = second compound 0.1 µM, first compound 1 µM
[5] = second compound 0.316 µM, first compound 0.0316 µM
[6] = second compound 0.316 µM, first compound 0.1 µM
[7] = second compound 0.316 µM, first compound 0.316 µM
[8] = second compound 0.316 µM, first compound 1 µM
[9] = second compound 1 µM, first compound 0.0316 µM
[10] = second compound 1 µM, first compound 0.1 µM
[11] = second compound 1 µM, first compound 0.316 µM
[12] = second compound 1 µM, first compound 1 µM
[13] = second compound 3.16 µM, first compound 0.0316 µM
[14] = second compound 3.16 µM, first compound 0.1 µM
[15] = second compound 3.16 µM, first compound 0.316 µM
[16] = second compound 3.16 µM, first compound 1 µM
[17] = second compound 10 µM, first compound 0.0316 µM
[18] = second compound 10 µM, first compound 0.1 µM
[19] = second compound 10 µM, first compound 0.316 µM
[20] = second compound 10 µM, first compound 1 µM
[21] = second compound 0.1 µM, first compound 3.16 µM
[22] = second compound 0.1 µM, first compound 10 µM
[23] = second compound 0.316 µM, first compound 3.16 µM
[24] = second compound 0.316 µM, first compound 10 µM
[25] = second compound 1 µM, first compound 3.16 µM
[26] = second compound 1 µM, first compound 10 µM
[27] = second compound 3.16 µM, first compound 3.16 µM
[28] = second compound 3.16 µM, first compound 10 µM
[29] = second compound 10 µM, first compound 3.16 µM
[30] = second compound 10 µM, first compound 10 µM

## CC(=O)c1c(C)c2cnc(Nc3ccc(N4CCNCC4)cn3)nc2n(C2CCCC2)c1=O + CC(C)NCC(C(=O)N1CCN(c2ncnc3c2C(C)CC3O)CC1)c1ccc(Cl)cc1
Second compound 0.1 µM
  pIC50: 8.01
Second compound 0.316 µM
  pIC50: > 9.02
Second compound 1 µM
  pIC50: > 9.02
Second compound 3.16 µM
  pIC50: > 9.02
Second compound 10 µM
  pIC50: > 9.02
Second compound 0.1 µM, first compound 0.000949 µM
  viability, T/C: 70.5%
Second compound 0.1 µM, first compound 0.003 µM
  viability, T/C: 62.3%
Second compound 0.1 µM, first compound 0.00949 µM
  viability, T/C: 50.6%
Second compound 0.1 µM, first compound 0.03 µM
  viability, T/C: 40.2%
Second compound 0.1 µM, first compound 0.0949 µM
  viability, T/C: 35.8%
Second compound 0.1 µM, first compound 0.3 µM
  viability, T/C: 34.2%
Second compound 0.316 µM, first compound 0.000949 µM
  viability, T/C: 36.3%
Second compound 0.316 µM, first compound 0.003 µM
  viability, T/C: 32.9%
Second compound 0.316 µM, first compound 0.00949 µM
  viability, T/C: 28%
Second compound 0.316 µM, first compound 0.03 µM
  viability, T/C: 25.6%
Second compound 0.316 µM, first compound 0.0949 µM
  viability, T/C: 23.9%
Second compound 0.316 µM, first compound 0.3 µM
  viability, T/C: 26.2%
Second compound 1 µM, first compound 0.000949 µM
  viability, T/C: 20.3%
Second compound 1 µM, first compound 0.003 µM
  viability, T/C: 18.3%
Second compound 1 µM, first compound 0.00949 µM
  viability, T/C: 17.6%
Second compound 1 µM, first compound 0.03 µM
  viability, T/C: 14.7%
Second compound 1 µM, first compound 0.0949 µM
  viability, T/C: 15.9%
Second compound 1 µM, first compound 0.3 µM
  viability, T/C: 18.5%
Second compound 3.16 µM, first compound 0.000949 µM
  viability, T/C: 16.5%
Second compound 3.16 µM, first compound 0.003 µM
  viability, T/C: 14.7%
Second compound 3.16 µM, first compound 0.00949 µM
  viability, T/C: 14.1%
Second compound 3.16 µM, first compound 0.03 µM
  viability, T/C: 15.6%
Second compound 3.16 µM, first compound 0.0949 µM
  viability, T/C: 13.4%
Second compound 3.16 µM, first compound 0.3 µM
  viability, T/C: 13.5%
Second compound 10 µM, first compound 0.000949 µM
  viability, T/C: 9.94%
Second compound 10 µM, first compound 0.003 µM
  viability, T/C: 9.77%
Second compound 10 µM, first compound 0.00949 µM
  viability, T/C: 8.83%
Second compound 10 µM, first compound 0.03 µM
  viability, T/C: 8.26%
Second compound 10 µM, first compound 0.0949 µM
  viability, T/C: 10.6%
Second compound 10 µM, first compound 0.3 µM
  viability, T/C: 10.5%

## COc1c(OCCCN2CCOCC2)ccc2c3n(c(=NC(=O)c4cnc(N)nc4)nc12)CCN3 + CC(C)NCC(C(=O)N1CCN(c2ncnc3c2C(C)CC3O)CC1)c1ccc(Cl)cc1
Second compound 0.1 µM
  pIC50: 8.42
Second compound 0.316 µM
  pIC50: > 8.50
Second compound 1 µM
  pIC50: > 8.50
Second compound 3.16 µM
  pIC50: > 8.50
Second compound 10 µM
  pIC50: > 8.50
Second compound 0.1 µM, first compound 0.00316 µM
  viability, T/C: 53.7%
Second compound 0.1 µM, first compound 0.01 µM
  viability, T/C: 31.3%
[1]
  viability, T/C: 12.1%
[2]
  viability, T/C: 6.59%
[3]
  viability, T/C: 5.28%
[4]
  viability, T/C: 3.75%
Second compound 0.316 µM, first compound 0.00316 µM
  viability, T/C: 29.5%
Second compound 0.316 µM, first compound 0.01 µM
  viability, T/C: 18.4%
[5]
  viability, T/C: 9.72%
[6]
  viability, T/C: 7.09%
[7]
  viability, T/C: 5.47%
[8]
  viability, T/C: 3.33%
Second compound 1 µM, first compound 0.00316 µM
  viability, T/C: 17.3%
Second compound 1 µM, first compound 0.01 µM
  viability, T/C: 11%
[9]
  viability, T/C: 8.59%
[10]
  viability, T/C: 6.92%
[11]
  viability, T/C: 4.3%
[12]
  viability, T/C: 2.76%
Second compound 3.16 µM, first compound 0.00316 µM
  viability, T/C: 12.3%
Second compound 3.16 µM, first compound 0.01 µM
  viability, T/C: 9.35%
[13]
  viability, T/C: 8.55%
[14]
  viability, T/C: 6.85%
[15]
  viability, T/C: 4.48%
[16]
  viability, T/C: 2.41%
Second compound 10 µM, first compound 0.00316 µM
  viability, T/C: 6.56%
Second compound 10 µM, first compound 0.01 µM
  viability, T/C: 5.87%
[17]
  viability, T/C: 5.36%
[18]
  viability, T/C: 4.04%
[19]
  viability, T/C: 2.89%
[20]
  viability, T/C: 1.6%

## Cc1nc(NC(=O)N2CCCC2C(N)=O)sc1-c1ccnc(C(C)(C)C(F)(F)F)c1 (stereo not given) + CC(C)NCC(C(=O)N1CCN(c2ncnc3c2C(C)CC3O)CC1)c1ccc(Cl)cc1
Second compound 0.1 µM
  pIC50: 6.92
Second compound 0.316 µM
  pIC50: > 7.50
Second compound 1 µM
  pIC50: > 7.50
Second compound 3.16 µM
  pIC50: > 7.50
Second compound 10 µM
  pIC50: > 7.50
[1]
  viability, T/C: 67.1%
[2]
  viability, T/C: 52.7%
[3]
  viability, T/C: 35%
[4]
  viability, T/C: 19.4%
[21]
  viability, T/C: 9%
[22]
  viability, T/C: 5%
[5]
  viability, T/C: 33.5%
[6]
  viability, T/C: 30.2%
[7]
  viability, T/C: 22.5%
[8]
  viability, T/C: 11.6%
[23]
  viability, T/C: 8.53%
[24]
  viability, T/C: 4.14%
[9]
  viability, T/C: 16.4%
[10]
  viability, T/C: 15.6%
[11]
  viability, T/C: 13.8%
[12]
  viability, T/C: 9.61%
[25]
  viability, T/C: 7.02%
[26]
  viability, T/C: 4.07%
[13]
  viability, T/C: 14.5%
[14]
  viability, T/C: 11.2%
[15]
  viability, T/C: 7.81%
[16]
  viability, T/C: 6.61%
[27]
  viability, T/C: 6.22%
[28]
  viability, T/C: 4.46%
[17]
  viability, T/C: 7.89%
[18]
  viability, T/C: 8.14%
[19]
  viability, T/C: 5.69%
[20]
  viability, T/C: 5.04%
[29]
  viability, T/C: 3.63%
[30]
  viability, T/C: 2.25%

## Cn1nccc1Nc1nccc(-c2ccn(C(CO)c3ccc(Cl)c(F)c3)c(=O)c2)n1 (stereo not given) + CC(C)NCC(C(=O)N1CCN(c2ncnc3c2C(C)CC3O)CC1)c1ccc(Cl)cc1
Second compound 0.1 µM
  pIC50: 5.30
Second compound 0.316 µM
  pIC50: > 7.50
Second compound 1 µM
  pIC50: > 7.50
Second compound 3.16 µM
  pIC50: > 7.50
Second compound 10 µM
  pIC50: > 7.50
[1]
  viability, T/C: 71.3%
[2]
  viability, T/C: 68%
[3]
  viability, T/C: 67.6%
[4]
  viability, T/C: 68.3%
[21]
  viability, T/C: 62.3%
[22]
  viability, T/C: 31.9%
[5]
  viability, T/C: 36.5%
[6]
  viability, T/C: 36%
[7]
  viability, T/C: 37.7%
[8]
  viability, T/C: 36.9%
[23]
  viability, T/C: 29.7%
[24]
  viability, T/C: 16.6%
[9]
  viability, T/C: 18.4%
[10]
  viability, T/C: 18.7%
[11]
  viability, T/C: 17.6%
[12]
  viability, T/C: 16.8%
[25]
  viability, T/C: 15.2%
[26]
  viability, T/C: 7.24%
[13]
  viability, T/C: 15.6%
[14]
  viability, T/C: 12.6%
[15]
  viability, T/C: 10.6%
[16]
  viability, T/C: 9.52%
[27]
  viability, T/C: 8.01%
[28]
  viability, T/C: 4.41%
[17]
  viability, T/C: 9.59%
[18]
  viability, T/C: 8.62%
[19]
  viability, T/C: 7.34%
[20]
  viability, T/C: 7.5%
[29]
  viability, T/C: 6.98%
[30]
  viability, T/C: 2.15%
